The test system of data set [1] is glioblastoma cell line U87-MG. Kind of data set: in vitro colony assay (survival fraction) after proton beam irradiation. The settings on record: for cytotoxicity / cell kill compared to the proton beam treatment alone: 8 Gye single fraction protons plus compound, U87 cells exposed 96 hours before irradiation. The protocol: FIG. 1 is a graphic representation of the dose of irradiation (x-axis) versus the log survival fraction (y-axis) of log phase U87 human glioblastoma cells. Three groups were used. […] This molecule is synthesized by replacing the 2 position of the aromatic ring of the nitrogenous base with oxygen-18. When these cells are treated with protons, there is a chemical transmutation at the atomic level where upon the oxygen-18 atom is changed into radioactive fluorine-18.
Physiologic serum concentrations in normal and cancer patients the physiologic serum concentration is ˜0.3-1.2 μM. The cells were irradiated with 2 and 8 Gye with 160 MeV protons single fraction and cell death/survival was determined using a colony assay and calculation of survival fraction.

For data set [2] the following is noted: large doses, human cancer patients; cited from earlier work.

On to C2-^18O-Thymidine [2-HTd], for which the increased cell kill entry in data set [1] (0.5 microgram HTd exposed for 96 hours in vitro, 8 Gye single fraction protons, versus protons alone (FIG. 1)) is listed as “about half a log”. Further, the results for the “cytotoxicity / cell kill compared to the proton beam treatment alone” value in data set [1] and in data set [1] (listed as heavy thymidine) were “increased cytotoxicity” and “greater cell kill”, respectively. Moreover, the radiation sensitization result in data set [1] (plus a single dose of 8 Gye of protons) was “proton specific radiation sensitization”.

Turning to `Cc1cn([C@H]2C[C@H](O)[C@@H](CO)O2)c(=O)[nH]c1=O` [Thymidine, reference compound], in data set [1] (same concentration X time exposure (0.5, 96 hours) plus 8 Gye protons), the “effect on cell survival” value is “no effect”. Besides, in data set [2], the “concentrations in the serum achieved” value is “milli-molar range”.

The values are drawn from patent US11396523B2, “Proton activated atomic medicine” (priority 2017, dated 2022).
